Reference: PubChem BioAssay (NCI)
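Five concentrations, 48 hours, 96-well plates. Here, GI50 denotes the concentration required for 50% inhibition of growth. The concentration for full growth arrest is given as TGI.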

What was measured:
Test in all cases: growth of human tumour cells (NCI), 48 h
[1] = system: SK-OV-3 ovarian
[2] = system: RXF 393 renal
[3] = system: OVCAR-4 ovarian
[4] = system: CAKI-1 renal
[5] = system: UACC-62 melanoma
[6] = system: MDA-MB-435
[7] = system: SN12C renal
[8] = system: HCT-116 colon
[9] = system: NCI-H226 lung
[10] = system: MCF7 breast
[11] = system: ACHN renal
[12] = system: EKVX NSCLC
[13] = system: TK-10 renal
[14] = system: MDA-MB-231 breast
[15] = system: LOX IMVI melanoma
[16] = system: SK-MEL-28 melanoma
[17] = system: HS 578T breast
[18] = system: SW-620 colon
[19] = system: SF-295 CNS
[20] = system: NCI/ADR-RES ovarian
[21] = system: CCRF-CEM leukemia
[22] = system: NCI-H23 lung
[23] = system: HCT-15 colon
[24] = system: U251 CNS
[25] = system: UACC-257 melanoma
[26] = system: SK-MEL-5 melanoma
[27] = system: IGROV1 ovarian
[28] = system: MALME-3M melanoma
[29] = system: M14 melanoma
[30] = system: SNB-19 CNS
[31] = system: HCC-2998 colon
[32] = system: K-562 leukemia
[33] = system: OVCAR-3 ovarian
[34] = system: SNB-75 CNS
[35] = system: HOP-62 NSCLC
[36] = system: PC-3 prostate
[37] = system: OVCAR-5 ovarian
[38] = system: SF-539 CNS
[39] = system: RPMI-8226 leukemia
[40] = system: SF-268 CNS
[41] = system: HT29 colon
[42] = system: HOP-92 NSCLC
[43] = system: UO-31 renal
[44] = system: DU-145 prostate
[45] = system: MOLT-4 leukemia
[46] = system: SR leukemia
[47] = system: NCI-H522 lung
[48] = system: OVCAR-8 ovarian
[49] = system: NCI-H460 lung
[50] = system: KM12 colon
[51] = system: BT-549 breast
[52] = system: A549 NSCLC
[53] = system: COLO 205 colon
[54] = system: 786-0 renal
[55] = system: SK-MEL-2 melanoma

For `C=C1C(O)C2CCC(C)(C)C(=O)C2=C(CC(C)C)C12CC2` (stereo not given), the GI50 [1] was over 100 µM, the TGI [1] was over 100 µM and the GI50 [2] was 53.1 µM. The TGI [2] was over 100 µM, the GI50 [3] was over 100 µM and the TGI [3] was over 100 µM. It also gave a GI50 [4] of 31.2 µM, a TGI [4] of 86.6 µM and a GI50 [5] of 90.8 µM. For the same molecule, the TGI [5] was over 100 µM, the GI50 [6] was 67.4 µM and the TGI [6] was over 100 µM. The GI50 [7] was 63.8 µM, the TGI [7] was over 100 µM and the GI50 [8] was 37.2 µM. It also gave a TGI [8] of over 100 µM, a GI50 [9] of 43.5 µM and a TGI [9] of over 100 µM. It also gave a GI50 [10] of 35 µM, a TGI [10] of over 100 µM and a GI50 [11] of 39.3 µM. For the same molecule, the TGI [11] was over 100 µM, the GI50 [12] was 78.7 µM and the TGI [12] was over 100 µM. It also gave a GI50 [13] of 67.9 µM, a TGI [13] of over 100 µM and a GI50 [14] of 91.8 µM. For the same molecule, the TGI [14] was over 100 µM, the GI50 [15] was 68.5 µM and the TGI [15] was over 100 µM. It also gave a GI50 [16] of 43.6 µM, a TGI [16] of over 100 µM and a GI50 [17] of 18.9 µM. For the same molecule, the TGI [17] was 92.9 µM, the GI50 [18] was 42 µM and the TGI [18] was over 100 µM. For the same molecule, the GI50 [19] was 36.6 µM, the TGI [19] was over 100 µM and the GI50 [20] was 45.4 µM. The TGI [20] was over 100 µM, the GI50 [21] was 36.8 µM and the TGI [21] was over 100 µM. For the same molecule, the GI50 [22] was 66.7 µM, the TGI [22] was over 100 µM and the GI50 [23] was 54.4 µM. It also gave a TGI [23] of over 100 µM, a GI50 [24] of 43.4 µM and a TGI [24] of over 100 µM. For the same molecule, the GI50 [25] was 88 µM, the TGI [25] was over 100 µM and the GI50 [26] was 24.8 µM. For the same molecule, the TGI [26] was over 100 µM, the GI50 [27] was over 100 µM and the TGI [27] was over 100 µM. It also gave a GI50 [28] of 35.6 µM, a TGI [28] of over 100 µM and a GI50 [29] of 80.8 µM. For the same molecule, the TGI [29] was over 100 µM, the GI50 [30] was 59.5 µM and the TGI [30] was over 100 µM. The GI50 [31] was 16.6 µM, the TGI [31] was 65.8 µM and the GI50 [32] was 31.9 µM. For the same molecule, the TGI [32] was over 100 µM, the GI50 [33] was 34.7 µM and the TGI [33] was over 100 µM. It also gave a GI50 [34] of 93.1 µM, a TGI [34] of over 100 µM and a GI50 [35] of 76.6 µM. It also gave a TGI [35] of over 100 µM, a GI50 [36] of 33.2 µM and a TGI [36] of over 100 µM. The GI50 [37] was over 100 µM, the TGI [37] was over 100 µM and the GI50 [38] was 70.7 µM. The TGI [38] was over 100 µM, the GI50 [39] was 22.3 µM and the TGI [39] was 56.8 µM. The GI50 [40] was 50.5 µM, the TGI [40] was over 100 µM and the GI50 [41] was 76.6 µM. For the same molecule, the TGI [41] was over 100 µM, the GI50 [42] was 15 µM and the TGI [42] was 70.3 µM. For the same molecule, the GI50 [43] was 66.1 µM, the TGI [43] was over 100 µM and the GI50 [44] was 84.9 µM. It also gave a TGI [44] of over 100 µM, a GI50 [45] of 33.1 µM and a TGI [45] of over 100 µM. For the same molecule, the GI50 [46] was 34 µM, the TGI [46] was over 100 µM and the GI50 [47] was 36.6 µM. It also gave a TGI [47] of over 100 µM, a GI50 [48] of over 100 µM and a TGI [48] of over 100 µM. The GI50 [49] was 32.8 µM, the TGI [49] was over 100 µM and the GI50 [50] was 47.1 µM. For the same molecule, the TGI [50] was over 100 µM, the GI50 [51] was over 100 µM and the TGI [51] was over 100 µM. For the same molecule, the GI50 [52] was 93.3 µM, the TGI [52] was over 100 µM and the GI50 [53] was 22.7 µM. It also gave a TGI [53] of 53.6 µM, a GI50 [54] of over 100 µM and a TGI [54] of over 100 µM. It also gave a GI50 [55] of over 100 µM and a TGI [55] of over 100 µM.
